pEC50: −log10 of the molar value. Where a SMILES comes first, the peptide text is derived from it. [ ]: non-standard residue; d: D form. The star is where a group is joined. Doxorubicin(3'-N) = COc1cccc2c1C(=O)c1c(O)c3c(c(O)c1C2=O)C[C@@](O)(C(=O)CO)C[C@@H]3O[C@H]1C[C@H](N*)[C@H](O)[C@H](C)O1; Decanoyl(3,6,9-trioxa) = COCCOCCOCC(=O)*; Glyceroyl(2R) = O=C([C@H](O)CO)*; X1 = COCCOCCOCCOCCOCCOCCOCC(=O)*; hArg = N=C(N)NCCCC[C@H](N)C(=O)O; 3Pal = N[C@@H](Cc1cccnc1)C(=O)O; X4 = O=C([C@H](O)[C@@H](O)CO)*; Chg = N[C@H](C(=O)O)C1CCCCC1; Nle = CCCC[C@H](N)C(=O)O; Glycolyl = O=C(CO)*
How the values were obtained:
DuPRO cells = test: In vitro cytotoxicity of peptidyl derivatives of doxorubicin, Alamar Blue assay, DuPRO; assay type: cell-based; conditions: 3 days incubation, read-out: DuPRO cell kill EC 50 (μM), value in parentheses
Procedure: (§1) The cytotoxicities of the cleaveable oligopeptide-doxorubicin conjugates, prepared as described in Examples 3-6, against a line of cells which is known to be killed by unmodified doxorubicin was assessed with an Alamar Blue assay. Specifically, cell cultures of LNCap prostate tumor cells or DuPRO cells in 96 well plates was diluted with medium containing various concentrations of a given conjugate (final plate well volume of 200 μl). The cells were incubated for 3 days at 37° C., 20 μl of Alamar Blue is added to the assay well. The cells were further incubated and the assay plates were read on a EL-310 ELISA reader at the dual wavelengths of 570 and 600 nm at 4 and 7 hours after addition of Alamar Blue. Relative percentage viability at the various concentration of conjugate tested was then calculated versus control (no conjugate) cultures. If no salt is indicated, the free conjugate was tested.

free PSA = free PSA (Homo sapiens, UniProt P07288); test: Recognition of oligopeptide-doxorubicin conjugates by free PSA (time to 50% cleavage, HPLC); assay type: biochemical; parameters: required for 50% cleavage of the noted oligopeptides with enzymatically active free PSA
Procedure: If no salt is indicated for the conjugate, the free conjugate was tested.

[1] = tested on: LNCap prostate tumor cells; test: In vitro cytotoxicity of peptidyl derivatives of doxorubicin, Alamar Blue assay, LNCaP; assay type: cell-based
Procedure: as §1

free PSA, sequence (P07288 25-261): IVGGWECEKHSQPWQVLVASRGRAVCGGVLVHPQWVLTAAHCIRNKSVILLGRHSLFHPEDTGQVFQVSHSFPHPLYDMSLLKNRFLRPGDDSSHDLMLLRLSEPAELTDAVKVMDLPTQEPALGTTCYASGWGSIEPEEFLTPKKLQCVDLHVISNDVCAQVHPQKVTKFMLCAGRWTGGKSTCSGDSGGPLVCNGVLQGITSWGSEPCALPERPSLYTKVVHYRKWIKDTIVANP

COc1cccc2c1C(=O)c1c(O)c3c(c(O)c1C2=O)C[C@@](O)(C(=O)CO)C[C@@H]3O[C@H]1C[C@H](NC(=O)[C@H](CC(C)C)NC(=O)[C@H](CO)NC(=O)[C@H](CO)NC(=O)[C@H](CO)NC(=O)[C@H](CCC(N)=O)NC(=O)[C@H](Cc2ccc(O)cc2)NC(=O)[C@H](CO)NC(=O)CO)[C@H](O)[C@H](C)O1 [2-hydroxyacetyl-SYQ-SSSL-DOX(3'), 2-hydroxyacetyl-SerTyrGln-SerSerSerLeu-DOX (3')] (Glycolyl-SYQSSSL-{Doxorubicin(3'-N)})
EC50 (DuPRO cells): 50 µM

COc1cccc2c1C(=O)c1c(O)c3c(c(O)c1C2=O)C[C@@](O)(C(=O)CO)C[C@@H]3O[C@H]1C[C@H](NC(=O)[C@H](CC(C)C)NC(=O)[C@H](CO)NC(=O)[C@H](CCC(N)=O)NC(=O)[C@@H](NC(=O)[C@H](CO)NC(=O)[C@H](C)NC(=O)[C@H](CCCCNC(=N)N)NC(=O)CO)C2CCCCC2)[C@H](O)[C@H](C)O1 [2-hydroxyacetyl-hRASChgQ-SL-DOX(3'), 2-hydroxyacetyl-hArgAlaSerChgGln-SerLeu-DOX (3')] (Glycolyl-[hArg]AS[Chg]QSL-{Doxorubicin(3'-N)})
EC50 (DuPRO cells): > 100 µM

COc1cccc2c1C(=O)c1c(O)c3c(c(O)c1C2=O)C[C@@](O)(C(=O)CO)C[C@@H]3O[C@H]1C[C@H](NC(=O)[C@H](CC(C)C)NC(=O)[C@H](CO)NC(=O)[C@H](CCC(N)=O)NC(=O)[C@H](Cc2ccc(O)cc2)NC(=O)[C@H](CO)NC(=O)[C@H](CO)NC(=O)[C@H](CCCCNC(=N)N)NC(=O)CO)[C@H](O)[C@H](C)O1 [2-hydroxyacetyl-hRSSYQ-SL-DOX(3'), 2-hydroxyacetyl-hArgSerSerTyrGln-SerLeu-DOX (3')] (Glycolyl-[hArg]SSYQSL-{Doxorubicin(3'-N)})
EC50 (DuPRO cells): > 100 µM

CCCC[C@H](NC(=O)[C@H](CO)NC(=O)[C@H](CCC(N)=O)NC(=O)[C@H](Cc1ccc(O)cc1)NC(=O)[C@H](CO)NC(=O)[C@H](CO)NC(=O)[C@H](CCCCNC(=N)N)NC(=O)CO)C(=O)N[C@H]1C[C@H](O[C@H]2C[C@](O)(C(=O)CO)Cc3c(O)c4c(c(O)c32)C(=O)c2c(OC)cccc2C4=O)O[C@@H](C)[C@H]1O [2-hydroxyacetyl-hRSSYQ-SNle-DOX(3'), 2-hydroxyacetyl-hArgSerSerTyrGln-SerNle-DOX (3')] (Glycolyl-[hArg]SSYQS[Nle]-{Doxorubicin(3'-N)})
Time to 50% Substrate Cleavage by York PSA (Min), value marked * (free PSA; Table 3, alternative PSA digestion buffer 12 mM Tris pH8.0, 25 mM NaCl, 0.5 mM CaCl2): 60 min

COc1cccc2c1C(=O)c1c(O)c3c(c(O)c1C2=O)C[C@@](O)(C(=O)CO)C[C@@H]3O[C@H]1C[C@H](NC(=O)[C@H](CC(C)C)NC(=O)[C@H](CO)NC(=O)[C@H](CCC(N)=O)NC(=O)[C@@H](NC(=O)[C@H](CCCCNC(=N)N)NC(=O)[C@H](O)[C@@H](O)CO)C2CCCCC2)[C@H](O)[C@H](C)O1 [(2R,3S) 2,3,4-trihydroxybutanoyl-hArgChgGln-SerLeu-DOX (3')] (X4-[hArg][Chg]QSL-{Doxorubicin(3'-N)})
Substrate cleavage by York PSA at 4 HOUR (free PSA; Table 3, DOX conjugates): 0%

COc1cccc2c1C(=O)c1c(O)c3c(c(O)c1C2=O)C[C@@](O)(C(=O)CO)C[C@@H]3O[C@H]1C[C@H](NC(=O)[C@H](CC(C)C)NC(=O)[C@H](CO)NC(=O)[C@H](CCC(N)=O)NC(=O)[C@@H](NC(=O)[C@H](CO)NC(=O)[C@H](CO)NC(=O)[C@H](Cc2cccnc2)NC(=O)[C@H](O)CO)C2CCCCC2)[C@H](O)[C@H](C)O1 [(d)(2,3-dihydroxypropionyl)-3PAL-SerSerChgGln-SerLeu-DOX (3')] ({Glyceroyl(2R)}-[3Pal]SS[Chg]QSL-{Doxorubicin(3'-N)})
EC50 (DuPRO cells): > 100 µM

COCCOCCOCC(=O)N[C@@H](CCCCN)C(=O)N[C@@H](Cc1ccc(O)cc1)C(=O)N[C@@H](CCC(N)=O)C(=O)N[C@@H](CO)C(=O)N[C@@H](CO)C(=O)N[C@@H](CO)C(=O)N[C@@H](CC(C)C)C(=O)N[C@H]1C[C@H](O[C@H]2C[C@](O)(C(=O)CO)Cc3c(O)c4c(c(O)c32)C(=O)c2c(OC)cccc2C4=O)O[C@@H](C)[C@H]1O [PEG(2)-KYQ-SSSL-DOX(3'), PEG(2)-LysTyrGln-SerSerSerLeu-DOX (3')] ({Decanoyl(3,6,9-trioxa)}-KYQSSSL-{Doxorubicin(3'-N)})
Substrate cleavage by York PSA at 4 HOUR (free PSA; Table 3, DOX conjugates): 20%

COCCOCCOCC(=O)N[C@@H](CO)C(=O)N[C@@H](CO)C(=O)N[C@@H](CO)C(=O)N[C@H](C(=O)N[C@@H](CCC(N)=O)C(=O)N[C@@H](CO)C(=O)N[C@H](CC(C)C)C(=O)N[C@H]1C[C@H](O[C@H]2C[C@](O)(C(=O)CO)Cc3c(O)c4c(c(O)c32)C(=O)c2c(OC)cccc2C4=O)O[C@@H](C)[C@H]1O)C1CCCCC1 [PEG(2)-SSSChgQ-S(dL)-DOX(3'), PEG(2)-SerSerSerChgGln-Ser(dLeu)-DOX (3')]
Substrate cleavage by York PSA at 3 HOUR (free PSA; Table 3, DOX conjugates, 3 hours): 46%

COCCOCCOCC(=O)N[C@@H](CCCCNC(=N)N)C(=O)N[C@H](C(=O)N[C@@H](CCC(N)=O)C(=O)N[C@@H](CO)C(=O)N[C@@H](CC(C)C)C(=O)N[C@H]1C[C@H](O[C@H]2C[C@](O)(C(=O)CO)Cc3c(O)c4c(c(O)c32)C(=O)c2c(OC)cccc2C4=O)O[C@@H](C)[C@H]1O)C1CCCCC1 [PEG(2)-hRChgQ-SL-DOX(3'), PEG(2)-hArgChgGln-SerLeu-DOX (3')] ({Decanoyl(3,6,9-trioxa)}-[hArg][Chg]QSL-{Doxorubicin(3'-N)})
Solubility remark in the cell kill column (INSOLUBLE / PS) ([1]; Table 4, DOX conjugates, abbreviation not defined): INSOLUBLE

COCCOCCOCCOCCOCCOCCOCC(=O)N[C@@H](C)C(=O)N[C@@H](CO)C(=O)N[C@H](C(=O)N[C@@H](CCC(N)=O)C(=O)N[C@@H](CO)C(=O)N[C@@H](CC(C)C)C(=O)N[C@H]1C[C@H](O[C@H]2C[C@](O)(C(=O)CO)Cc3c(O)c4c(c(O)c32)C(=O)c2c(OC)cccc2C4=O)O[C@@H](C)[C@H]1O)C1CCCCC1 [PEG(6)-ASChgQ-SL-DOX(3'), PEG(6)-AlaSerChgGln-SerLeu-DOX (3')] (X1-AS[Chg]QSL-{Doxorubicin(3'-N)})
EC50 (DuPRO cells): 100 µM

N-[2-{2-(2-methoxyethoxy)ethoxy}acetyl]-Ser-Ser-Ser-Chg-Gln-Ser-Leu-Dox [PEG(2)-SSSChgQ-SL-DOX(3')]
Time to 50% Substrate Cleavage by York PSA (free PSA; Table 3, DOX conjugates, buffer 50 mM Tris pH7.4, 140 mM NaCl, conjugate:PSA 100 to 1): 60 min | pEC50 ([1]; LNCaP cells, 72 h (3 days) incubation, Alamar Blue, read-out: LNCaP Cell Kill in 72 HRS, {48 HRS} EC 50): 5.00 | EC50 (DuPRO cells): > 100 µM

Reference: US5998362A, “Conjugates useful in the treatment of prostate cancer” (priority 1997, dated 1999)
